# Values quoted from earlier work in patent US20260232611A1, “USE OF (S)-3-AMINO-4-(DIFLUOROMETHYLENYL) CYCLOPENT-1-ENE-1-CARBOXYLIC ACID IN THE TREATMENT OF RHEUMATOID ARTHRITIS” (Ovid Therapeutics Inc., priority 2023, published 2026).
# Key:
# [1] = tested on: alanine aminotransferase (Ala-AT); details: unlike vigabatrin
# [2] = tested on: aspartate aminotransferase (Asp-AT); details: unlike vigabatrin
compound,measurement,setting,value
"N[C@H]1C[C@@H](C(=O)O)CC1=C(F)F [CPP-115, (1S,3S)-3-amino+difluoromethylenyl-1-cyclopentanoic acid]",inactivation or inhibition of off-target enzyme,[1],not to inactivate or inhibit
same,inactivation or inhibition of off-target enzyme,[2],not to inactivate or inhibit
